From patent US10183055B2, “Ang-(1-7) derivative oligopeptides for the treatment of pain and other indications” (ARIZONA BOARD OF REGENTS ON BEHALF OF THE UNIVERSITY OF …, priority 2014, dated 2019) come the findings set out here.

In one data set the test system is naïve mice. Briefly: Rotarod performance test. The settings on record: spinal 0.3 pmol/5 μL or systemic 0.058 and 10 μg/kg. The format is in vivo. On the procedure: Rotarod: A rotarod performance test was used to determine the motor and/or sedative effects of Ang-(1-7) (Rotamex 4/8, Columbus Instruments, Columbus, Ohio, USA). Three days prior to testing, naïve mice were subjected to 5 trials in which they were able to acclimate to the rotating rod (10 revolutions/min). On the day of testing, animals were allowed one trial and then baselined. The amount of time the animal remained on the rod was recorded, with a cutoff time of 120 seconds to prevent exhaustion. Animals were dosed (i.p.) as previously described and reevaluated 15, 30, 60, and 120 minutes post-administration.
To exclude the possibility that Ang-(1-7) administration reduced mobility in order to increase tail withdraw latency, rotarod testing was performed. Naïve animals were trained to walk on a rotating rod for 2 min. After training, animals were injected with Ang-(1-7) by either spinal (0.3 pmol/5 μL) or systemic routes (0.058 and 10 μg/kg).
In general terms: The rotarod test checks motor coordination on a turning rod.

For data set [1] the following is noted: mouse, serum.
Description: (§1) Aliquots were withdrawn at the indicated time intervals and the peptide concentration was determined using HPLC-MS and expressed as a percentage of the initial concentration.
The nature of data set [2]: In vivo serum and CSF concentration after subcutaneous injection.
Description: The peptides (10 mg/kg) or vehicle control were individually subcutaneously injected into naïve mice. Serum concentrations were determined every 10 minutes by HPLC-MS using a 20-30 μl blood sample. […] CSF samples were simultaneously withdrawn from the same animals via a microdialysis probe and assayed for the peptide concentration and corrected for basal CSF levels.
The subject of data set [3] is human umbilical vascular endothelial cells (HUVEC). Briefly: NO production assay (DAF-FM fluorescence, microplate reader). The format is cell-based. The conditions noted are these: 5 minutes exposure. Here is the method:
NO production assay. As a screen for mechanisms of action of oligopeptides of the invention, the ability to increase NO production of three oligopeptides of the invention (PN-A3, PN-A4 and PN-A5) were characterized and compared to native Ang-(1-7). Human umbilical vascular endothelial cells (HUVEC) culture plates received fluorescence reaction buffer (0.2 M phosphate buffer, pH 7, 1 mM EDTA, 0.1% glucose) containing diaminofluorescein-FM diacetate (DAF-FM, 1 μM) to measure real-time NO production. Time-resolved (10 minutes) fluorescent intensity was detected using a BioTek Synergy 2 microplate reader with excitation at 485 nm and emission at 535 nm. DAF-FM is a sensitive flourometric derivative for the selective detection of NO in live cells.
Values were normalized to control fluorescence.

The test system is the same in data set [4]. The data set can be described thus: xCELLigence RTCA cell activation (cell impedance). The format is cell-based. The text has this:
Cell culture. To isolate primary hippocampal CA1 neuronal cells, whole brain was removed from neonatal rat pups (1-2 day old) and the cortices dissected away. The hippocampus was isolated and the CA1 field was excised and placed in buffer. After gentle disruption in digestion buffer, the cells were counted, placed in culture media, and plated in a 96-well format coated with poly-d-lysine. At the time of plating, cells were approximately at 50% density and were allowed to culture to 70-80% density before starting the assay. Commercially available HUVEC (Life Technologies/Thermo Fisher) was thawed and plated (5000-10,000 cells/well) in a 96-well format coated with gelatin. HUVEC cells were allowed to culture overnight before starting the assay.
Cell Activation: The xCELLigence system Real-Time Cell Analyzer (RTCA), developed by Roche Applied Science, uses microelectronic biosensor technology to do dynamic, real-time, label-free, and non-invasive analysis of cellular events including G-protein receptor activation of cells. The RTCA analysis was utilized to measure the potency and relative ability of oligopeptides of the invention and native Ang-(1-7) to activate human umbilical vascular endothelial cells (HUVEC) in culture. Following uniform cellular adherence based on a linear increase in cell impedance (CI), HUVECs were treated with Ang-(1-7) and oligopeptides of the invention. Each trace of the CI over time in FIG. 1 represents the average of 4 wells normalized to CI at the time of compound addition.

The test system of data set [5] is BALB/cAnNHsd mice with intramedullary 66.1 cells (CIBP). The data set can be described thus: Established CIBP, acute behavioral testing (flinching/guarding). The format is in vivo. The settings on record: for pain behaviors, AT1 or AT2 antagonist administered alone: 0.4 mg/kg i.p. On the procedure: Animals: Female BALB/cAnNHsd mice (Harlan, Ind., USA) between 15 and 20 g were used in this study. Mice were housed in a climate control room on a 12-hour light/dark cycle and allowed food and water ad libitum. Animals were monitored on days 0, 7, 10, and 14 of the study for clinical signs of rapid weight loss and signs of distress.
All intraperitoneal (i.p.) injections were made at a volume of 10 mL/kg.
Arthrotomy—Intramedullary Implantation of 66.1 Cells: To induce CIBP, an arthrotomy was performed. Briefly, animals were anesthetized with 80 mg/kg ketamine-12 mg/kg xylazine (in a 10 mL/kg volume). The surgical area was shaved and cleaned with 70% ethanol and betadine. The condyles of the right femur were exposed and a burr-hole (0.66 mm) was drilled to create a space for the 66.1 cell inoculation. A 5 μl volume of 66.1 cells (8,000 cells per 1 μl) in MEM (or 5 μl MEM without cells in sham animals) was injected into the intramedullary space of the mouse femora. Proper placement of the injector was confirmed by radiograph (Faxitron X-ray imaging). Holes were sealed with bone cement and the patella reset. Muscle and skin were closed in separate layers with 5-0 vicryl suture and wound autoclips, respectively. Animals were given 8 mg/kg (10 mL/kg volume) gentamicin to prevent infection. Staples were removed 7 days post-surgery.
Acute Behavioral Testing: Fourteen days post-surgery, baseline behaviors of spontaneous flinching/guarding were recorded. Flinching was characterized by the lifting and rapid flexing of the hind paw ipsilateral to femoral inoculation when not associated with walking or other movement. Guarding was characterized by the lifting the inoculated hind limb into a fully retracted position under the torso. The total number of flinches and the time spent guarding 2 min duration was recorded. […] Antagonists were administered 30 minutes prior to Ang-(1-7). Following administration, animals were tested at over a three-hour time course until their pain behaviors returned to baseline

The nature of data set [6]: In Vitro Serum Half-Life Assay. The conditions noted are these: mouse.
Description: as §1

Read-outs that look alike come from different tables or passages of the source. Residues, ends and D or L forms follow the SMILES beside them. *: point of attachment. X2 = OC[C@H]1O[C@@H](O[C@H]2[C@H](O)[C@@H](O)[C@H](*)O[C@@H]2CO)[C@H](O)[C@@H](O)[C@H]1O; X1 = OC[C@H]1OC(*)[C@H](O)[C@@H](O)[C@@H]1O

`CC[C@H](C)[C@H](NC(=O)[C@H](Cc1ccc(O)cc1)NC(=O)[C@@H](NC(=O)[C@H](CCCNC(=N)N)NC(=O)[C@@H](N)CC(=O)O)C(C)C)C(=O)N[C@@H](Cc1c[nH]cn1)C(=O)N1CCC[C@H]1C(=O)O` [Ang-(1-7), Asp-Arg-Val-Tyr-Ile-His-Pro]: in the data set with naïve mice, the “rotarod latencies versus vehicle” value is reported as “No significant differences in rotarod latencies”.
In the case of `CC[C@H](C)[C@H](NC(=O)[C@H](Cc1ccc(O)cc1)NC(=O)[C@@H](NC(=O)[C@H](CCCNC(=N)N)NC(=O)[C@@H](N)CC(=O)O)C(C)C)C(=O)N[C@@H](Cc1c[nH]cn1)C(=O)N[C@@H](COC1O[C@H](CO)[C@@H](O)[C@H](O)[C@H]1O)C(N)=O` (stereo partly drawn) [PN-A5, Ang 1-6-Ser(OGlc)-NH2] (H-DRVYIHS(X1)-NH2), in data set [1], the half-life (commonly how long it takes for the measured level to halve) is 1 h. Further, in data set [2] (10 mg/kg subcutaneous, naïve mice, microdialysis, corrected for basal CSF levels), the “maximum CSF concentration” value is recorded as “about 400 nM”. For the same compound, in data set [2] (mouse, serum, sc, 10 mg/kg), the peak concentration (Cmax) – broadly, the highest concentration seen after dosing – is approximately 3.5 µM.
Regarding “PN-A3: Asp Arg Val Tyr Ile His Pro Ser* (glucosylated), carboxyl terminal NH2 (SEQ ID NO: 8) (DRVYIHPS; glucosylated; C-terminal amide; MOD_RES (8)..(8) Glucosylated-Ser; C-term -NH2)”, the “NO production versus control levels (relative peak fluorescence intensity)” value in data set [3] is recorded as “significant elevation of NO over control levels”. For the same compound, the “increase in cell impedance (CI) over the native Ang-(1-7)” value in data set [4] (10 nM) and in data set [4] (100 nM) was approximately 2 fold each time.
Consider `CCCCc1nc(Cl)c(CO)n1Cc1ccc(-c2ccccc2-c2nn[nH]n2)cc1` [Losartan potassium], for which, in data set [5], the “pain behaviors, AT1 or AT2 antagonist administered alone” value is reported as “neither Losartan potassium nor PD 123319 significantly altered pain behaviors”. The “MPE in reducing flinching” value in data set [5] (Losartan potassium 0.4 mg/kg i.p. 30 minutes prior to Ang-(1-7) 0.058 μg/kg, 15 minutes post-administration) was 80.56%. Further, in data set [5] (Losartan potassium 0.4 mg/kg i.p. 30 minutes prior to Ang-(1-7) 0.058 μg/kg, 30 minutes post-administration), the “maximal possible efficacy (MPE) in reducing guarding” value is 77.527%.
In the case of “PN-A4: Asp Arg Val Tyr Ile His Pro Ser** (lactosylated), carboxyl terminal NH2 (SEQ ID NO: 9) (DRVYIHPS; lactosylated; C-terminal amide; MOD_RES (8)..(8) Lactosylated-Ser; C-term -NH2)”, the “NO production versus control levels (relative peak fluorescence intensity)” value in data set [3] is “significant elevation of NO over control levels”. The “increase in cell impedance (CI) over the native Ang-(1-7)” value in data set [4] (100 nM) is on record as approximately 2 fold.
Turning to `Cc1cc(Cn2cnc3c2C[C@@H](C(=O)O)N(C(=O)C(c2ccccc2)c2ccccc2)C3)ccc1N(C)C` [PD 123319], the “pain behaviors, AT1 or AT2 antagonist administered alone” value in data set [5] is on record as “neither Losartan potassium nor PD 123319 significantly altered pain behaviors”. The “guarding or flinching versus Ang-(1-7) alone” value in data set [5] (PD 123319 0.4 mg/kg i.p. 30 minutes prior to Ang-(1-7) 0.058 μg/kg) is reported as “did not further increase nor decrease guarding or flinching”.
`CC[C@H](C)[C@H](NC(=O)[C@H](Cc1ccc(O)cc1)NC(=O)[C@@H](NC(=O)[C@H](CCCNC(=N)N)NC(=O)[C@@H](N)CC(=O)O)C(C)C)C(=O)N[C@@H](Cc1c[nH]cn1)C(=O)N[C@@H](CO[C@@H]1O[C@H](CO)[C@@H](O[C@@H]2O[C@H](CO)[C@H](O)[C@H](O)[C@H]2O)[C@H](O)[C@H]1O)C(N)=O` [Ang 1-6-Ser(OLac)-NH2] (H-DRVYIHS(X2)-NH2) showed a half-life in data set [6] of 5.8 h.
